Source: BigSolDB 2.1

Cl.OC(CCCN1CCCCC1)(c1ccccc1)c1ccccc1
solubility (mole fraction)
Conditions	278.15 K	283.15 K	288.15 K	293.15 K	298.15 K	303.15 K	308.15 K	313.15 K	318.15 K	323.15 K
in DMAc	0.00189	0.00221	0.00254	0.00305	0.00357	0.00407	0.00457	0.00525	0.00596	0.00697
in DMF	0.00285	0.00316	0.00357	0.00408	0.00466	0.00515	0.00615	0.00688	0.00811	0.00923
in DMSO	–	–	–	0.0121	0.0134	0.0148	0.0167	0.019	0.0213	0.0242
in NMP	0.00427	0.00492	0.0056	0.00616	0.00725	0.00826	0.00921	0.0104	0.012	0.0141
in acetic acid	–	–	–	0.00434	0.00601	0.00965	0.016	0.0263	0.0428	0.0632
in acetonitrile	0.000127	0.00016	0.000224	0.000306	0.000412	0.000497	0.000623	0.000747	0.000892	0.00105
in ethanol	0.00161	0.00196	0.00227	0.00275	0.00336	0.00405	0.00485	0.00585	0.00706	0.00867
in methanol	0.00929	0.0109	0.0127	0.0152	0.0177	0.0207	0.0245	0.0285	0.0337	0.0397
in n-butanol	0.000548	0.000685	0.000907	0.00113	0.00137	0.00169	0.00206	0.00247	0.00304	0.00398
in n-pentanol	0.000228	0.000359	0.000562	0.00075	0.000981	0.00121	0.00164	0.00212	0.00265	0.00327
in n-propanol	0.00115	0.00151	0.00199	0.0025	0.00255	0.00309	0.00364	0.00454	0.00575	0.00708
in water	0.000935	0.001	0.00112	0.00125	0.00135	0.0015	0.00165	0.00173	0.00193	0.00216
